From PMC5218480 (PLoS ONE, 2017)

Tested on: MV-4-11 cells
Test: Gene expression microarray analysis (Affymetrix PrimeView) and GSEA
Assay type: cell-based, human
Design: RFU PODN (11730768_x_at) / Fold change /veh PODN (11730768_x_at) / RFU LINC00158 (11744669_a_at) / Fold change /veh LINC00158 (11744669_a_at) / RFU DUSP10 (11751237_a_at) / Fold change /veh DUSP10 (11751237_a_at) / RFU ID3 (11757404_x_at) / Fold change /veh ID3 (11757404_x_at) / RFU PLEKHG5 (11737974_s_at) / Fold change /veh PLEKHG5 (11737974_s_at) / RFU LRRC4B (11730491_at) / Fold change /veh LRRC4B (11730491_at) / RFU GIMAP4 (11747438_a_at) / Fold change /veh GIMAP4 (11747438_a_at) / RFU KRT8 (11758183_x_at) / Fold change /veh KRT8 (11758183_x_at) / RFU CNN1 (11734310_a_at) / Fold change /veh CNN1 (11734310_a_at) / RFU VPS37D (11726825_at) / Fold change /veh VPS37D (11726825_at) / RFU C10orf10 (11716522_x_at) / Fold change /veh C10orf10 (11716522_x_at) / RFU KIR2DL2 /// KIR2DL4 /// KIR2DL5A /// KIR2DL5B /// KIR2DS1 /// KIR2DS2 /// KIR2DS3 /// KIR2DS4 /// KIR3DL3 /// KIR3DL3 /// KIR3DS1 (11738374_at) / Fold change /veh KIR2DL2 /// KIR2DL4 /// KIR2DL5A /// KIR2DL5B /// KIR2DS1 /// KIR2DS2 /// KIR2DS3 /// KIR2DS4 /// KIR3DL3 /// KIR3DL3 /// KIR3DS1 (11738374_at) / RFU C1QL1 (11718748_at) / Fold change /veh C1QL1 (11718748_at) / RFU TMPRSS4 (11747572_a_at) / Fold change /veh TMPRSS4 (11747572_a_at) / RFU HAMP (11756126_x_at) / Fold change /veh HAMP (11756126_x_at) / RFU RNFT2 (11725882_a_at) / Fold change /veh RNFT2 (11725882_a_at) / RFU NR4A2 (11747474_a_at) / Fold change /veh NR4A2 (11747474_a_at) / RFU ABCC12 (11746883_a_at) / Fold change /veh ABCC12 (11746883_a_at) / RFU TMEM136 (11760407_x_at) / Fold change /veh TMEM136 (11760407_x_at) / RFU CLDN22 /// WWC2 (11732394_at) / Fold change /veh CLDN22 /// WWC2 (11732394_at) / RFU HLA-DPB1 (11760878_x_at) / Fold change /veh HLA-DPB1 (11760878_x_at) / RFU SPINT1 (11716480_a_at) / Fold change /veh SPINT1 (11716480_a_at) / RFU GAP43 (11754022_s_at) / Fold change /veh GAP43 (11754022_s_at) / RFU A4GNT (11735810_at) / Fold change /veh A4GNT (11735810_at) / RFU PRB3 (11715151_x_at) / Fold change /veh PRB3 (11715151_x_at) / RFU TUBB4B (11761932_at) / Fold change /veh TUBB4B (11761932_at) / RFU CAPN14 (11732068_a_at) / Fold change /veh CAPN14 (11732068_a_at) / RFU TMCC2 (11721928_a_at) / Fold change /veh TMCC2 (11721928_a_at) / RFU IRGQ (11745062_a_at) / Fold change /veh IRGQ (11745062_a_at) / RFU FAM174B (11720279_a_at) / Fold change /veh FAM174B (11720279_a_at) / RFU TMPRSS4 (11748680_a_at) / Fold change /veh TMPRSS4 (11748680_a_at) / RFU FAM212B (11763350_a_at) / Fold change /veh FAM212B (11763350_a_at) / RFU PLEKHG5 (11743358_a_at) / Fold change /veh PLEKHG5 (11743358_a_at) / RFU ZSCAN30 (11745921_a_at) / Fold change /veh ZSCAN30 (11745921_a_at) / RFU CMKLR1 (11741424_a_at) / Fold change /veh CMKLR1 (11741424_a_at) / RFU LOC101060620 /// MAPK8IP1 (11723275_at) / Fold change /veh LOC101060620 /// MAPK8IP1 (11723275_at) / RFU SPTSSB (11747773_x_at) / Fold change /veh SPTSSB (11747773_x_at) / RFU PRSS12 (11739890_at) / Fold change /veh PRSS12 (11739890_at) / RFU BIN1 (11741810_x_at) / Fold change /veh BIN1 (11741810_x_at) / RFU WNT11 (11732464_a_at) / Fold change /veh WNT11 (11732464_a_at) / RFU C10orf10 (11716521_a_at) / Fold change /veh C10orf10 (11716521_a_at) / RFU C5orf56 (11738089_at) / Fold change /veh C5orf56 (11738089_at) / RFU CYB561 (11721691_x_at) / Fold change /veh CYB561 (11721691_x_at) / RFU ANKRD19P (11752326_a_at) / Fold change /veh ANKRD19P (11752326_a_at) / RFU OR2T12 /// OR2T33 /// OR2T8 (11738714_s_at) / Fold change /veh OR2T12 /// OR2T33 /// OR2T8 (11738714_s_at) / RFU VCAN (11748164_a_at) / Fold change /veh VCAN (11748164_a_at) / RFU JSRP1 (11732532_at) / Fold change /veh JSRP1 (11732532_at) / RFU KRTAP10-11 (11738290_x_at) / Fold change /veh KRTAP10-11 (11738290_x_at) / RFU MYO3A (11730013_a_at) / Fold change /veh MYO3A (11730013_a_at) / RFU EBF3 (11725865_a_at) / Fold change /veh EBF3 (11725865_a_at) / RFU CAMK2N1 (11719241_x_at) / Fold change /veh CAMK2N1 (11719241_x_at) / RFU C5orf56 (11738088_a_at) / Fold change /veh C5orf56 (11738088_a_at) / RFU OLFML3 (11715873_a_at) / Fold change /veh OLFML3 (11715873_a_at) / RFU LOC100653217 /// NTM (11731650_a_at) / Fold change /veh LOC100653217 /// NTM (11731650_a_at) / RFU MAPK11 (11762145_a_at) / Fold change /veh MAPK11 (11762145_a_at) / RFU FIZ1 (11724087_x_at) / Fold change /veh FIZ1 (11724087_x_at) / RFU OASL (11726364_x_at) / Fold change /veh OASL (11726364_x_at) / RFU SOX15 (11748057_x_at) / Fold change /veh SOX15 (11748057_x_at) / RFU CD79A (11719716_a_at) / Fold change /veh CD79A (11719716_a_at) / RFU HIST1H1D (11736915_at) / Fold change /veh HIST1H1D (11736915_at) / RFU CASKIN2 (11723855_a_at) / Fold change /veh CASKIN2 (11723855_a_at) / RFU LOC730098 (11760151_x_at) / Fold change /veh LOC730098 (11760151_x_at) / RFU OR4N2 (11742367_at) / Fold change /veh OR4N2 (11742367_at) / RFU PRRT2 (11749266_a_at) / Fold change /veh PRRT2 (11749266_a_at) / RFU SNX32 (11753110_a_at) / Fold change /veh SNX32 (11753110_a_at) / RFU CDHR5 (11726645_a_at) / Fold change /veh CDHR5 (11726645_a_at) / RFU RCAN1 (11760418_a_at) / Fold change /veh RCAN1 (11760418_a_at) / RFU FAM167A (11723789_a_at) / Fold change /veh FAM167A (11723789_a_at) / RFU FAM26E (11764081_at) / Fold change /veh FAM26E (11764081_at) / RFU ISYNA1 (11749810_s_at) / Fold change /veh ISYNA1 (11749810_s_at) / RFU ACY1 (11761880_at) / Fold change /veh ACY1 (11761880_at) / RFU 11764098_at / Fold change /veh 11764098_at / RFU SAMD14 (11745864_x_at) / Fold change /veh SAMD14 (11745864_x_at) / RFU NPB (11741838_a_at) / Fold change /veh NPB (11741838_a_at) / RFU TMPRSS6 (11731388_a_at) / Fold change /veh TMPRSS6 (11731388_a_at) / RFU KRTAP10-2 (11738614_at) / Fold change /veh KRTAP10-2 (11738614_at) / RFU ARHGAP8 /// PRR5-ARHGAP8 (11727945_x_at) / Fold change /veh ARHGAP8 /// PRR5-ARHGAP8 (11727945_x_at) / RFU KRTAP5-7 /// NADSYN1 (11734609_at) / Fold change /veh KRTAP5-7 /// NADSYN1 (11734609_at) / RFU RASL12 (11751679_a_at) / Fold change /veh RASL12 (11751679_a_at) / RFU CDKN2B (11736163_a_at) / Fold change /veh CDKN2B (11736163_a_at) / RFU PRF1 (11729649_at) / Fold change /veh PRF1 (11729649_at) / RFU, ZNF638 /// ZNF638-IT1 / Fold change vs veh, ZNF638 /// ZNF638-IT1 / RFU, PANK3 / Fold change vs veh, PANK3 / RFU, SH3YL1 / Fold change vs veh, SH3YL1 / RFU, ZEB2 / Fold change vs veh, ZEB2 / RFU, NRIP1 / Fold change vs veh, NRIP1 / RFU, PTTG1IP / Fold change vs veh, PTTG1IP / RFU, CAPN2 / Fold change vs veh, CAPN2 / RFU, MED14 / Fold change vs veh, MED14 / RFU, SNORA58 / Fold change vs veh, SNORA58 / RFU, C1orf63 / Fold change vs veh, C1orf63 / RFU, LRRFIP1 / Fold change vs veh, LRRFIP1 / RFU, NDUFAF7 / Fold change vs veh, NDUFAF7 / RFU, SLC12A2 / Fold change vs veh, SLC12A2 / RFU, IBTK / Fold change vs veh, IBTK / RFU, ESF1 / Fold change vs veh, ESF1 / Fold change vs veh, TMEM50B / RFU, TAOK1 / Fold change vs veh, TAOK1 / RFU, ACBD3 / Fold change vs veh, ACBD3 / RFU, TMA16 / Fold change vs veh, TMA16 / RFU, RWDD3 / Fold change vs veh, RWDD3 / RFU, BCAT1 / Fold change vs veh, BCAT1 / RFU, EDEM3 / Fold change vs veh, EDEM3 / RFU, TMEM33 / Fold change vs veh, TMEM33 / RFU, WDR75 / Fold change vs veh, WDR75 / RFU, AHCTF1 / Fold change vs veh, AHCTF1 / RFU, TFRC / Fold change vs veh, TFRC / RFU, ZDHHC17 / Fold change vs veh, ZDHHC17 / RFU, NOM1 / Fold change vs veh, NOM1 / RFU, ARL8B / Fold change vs veh, ARL8B / RFU, ZBTB11 / Fold change vs veh, ZBTB11 / RFU, TAMM41 / Fold change vs veh, TAMM41 / RFU, KIAA1704 /// LOC100996395 / Fold change vs veh, KIAA1704 /// LOC100996395 / RFU, ING1 / Fold change vs veh, ING1 / RFU, TRMT61B / Fold change vs veh, TRMT61B / RFU, FUBP3 / Fold change vs veh, FUBP3 / RFU, TP53 / Fold change vs veh, TP53 / RFU, TNKS2 / Fold change vs veh, TNKS2 / RFU, ZFP14 / Fold change vs veh, ZFP14 / RFU, ACTR2 / Fold change vs veh, ACTR2 / RFU, PPP3R1 / Fold change vs veh, PPP3R1 / RFU, PIK3R1 / Fold change vs veh, PIK3R1 / RFU, HNRNPA1 / Fold change vs veh, HNRNPA1 / RFU, RNF170 / Fold change vs veh, RNF170 / RFU, ZNF28 / Fold change vs veh, ZNF28 / RFU, RNGTT / Fold change vs veh, RNGTT / RFU, OGT / Fold change vs veh, OGT / RFU, BRD1 / Fold change vs veh, BRD1 / RFU, MARS / Fold change vs veh, MARS / RFU, ZNF655 / Fold change vs veh, ZNF655 / RFU, FAHD1 / Fold change vs veh, FAHD1 / RFU, BDP1 / Fold change vs veh, BDP1 / RFU, LRRCC1 / Fold change vs veh, LRRCC1 / RFU, ARID1A / Fold change vs veh, ARID1A / RFU, ZNF146 / Fold change vs veh, ZNF146 / RFU, ZNF330 / Fold change vs veh, ZNF330 / RFU, GPN3 / Fold change vs veh, GPN3 / RFU, C9orf123 / Fold change vs veh, C9orf123 / RFU, N4BP2L2 / Fold change vs veh, N4BP2L2 / RFU, ARFIP1 / Fold change vs veh, ARFIP1 / RFU, FAM179B / Fold change vs veh, FAM179B / RFU, BCL10 / Fold change vs veh, BCL10 / RFU, UHRF1BP1L / Fold change vs veh, UHRF1BP1L / RFU, BET1 / Fold change vs veh, BET1 / RFU, CNOT2 / Fold change vs veh, CNOT2 / RFU, ZNF268 / Fold change vs veh, ZNF268 / Fold change vs veh, ZNF507 / RFU, DGCR2 / Fold change vs veh, DGCR2 / RFU, WDSUB1 / Fold change vs veh, WDSUB1 / Fold change vs veh, HSP90B1 /// MIR3652 / RFU, ADSS / Fold change vs veh, ADSS / RFU, GK / Fold change vs veh, GK / RFU, ZNF148 / Fold change vs veh, ZNF148 / RFU, TAF9 / Fold change vs veh, TAF9 / RFU, SLC1A5 / Fold change vs veh, SLC1A5 / RFU, SLMO2 / Fold change vs veh, SLMO2 / RFU, ABCC4 / Fold change vs veh, ABCC4 / RFU, LOC101060439 /// RAP1B / Fold change vs veh, LOC101060439 /// RAP1B / RFU, RFX7 / Fold change vs veh, RFX7 / RFU, GTPBP10 / Fold change vs veh, GTPBP10 / RFU, CNEP1R1 / Fold change vs veh, CNEP1R1 / RFU, BIVM-ERCC5 /// ERCC5 / Fold change vs veh, BIVM-ERCC5 /// ERCC5 / RFU, ILF3 / Fold change vs veh, ILF3 / RFU 11762660_at / Fold change /veh 11762660_at / RFU VCAN (11757783_s_at) / Fold change /veh VCAN (11757783_s_at) / RFU DDX43 (11728927_at) / Fold change /veh DDX43 (11728927_at) / RFU KRT8 (11758188_x_at) / Fold change /veh KRT8 (11758188_x_at) / RFU NKD1 (11759106_at) / Fold change /veh NKD1 (11759106_at) / RFU SRD5A1 (11742802_a_at) / Fold change /veh SRD5A1 (11742802_a_at) / RFU TPSAB1 /// TPSB2 (11721975_s_at) / Fold change /veh TPSAB1 /// TPSB2 (11721975_s_at) / RFU GSTM3 (11746129_a_at) / Fold change /veh GSTM3 (11746129_a_at) / RFU IL23R (11737362_x_at) / Fold change /veh IL23R (11737362_x_at) / RFU TMEM51 (11727254_a_at) / Fold change /veh TMEM51 (11727254_a_at) / RFU PIWIL2 (11732686_x_at) / Fold change /veh PIWIL2 (11732686_x_at) / RFU ORM1 (11744905_x_at) / Fold change /veh ORM1 (11744905_x_at) / RFU CCDC152 (11743942_at) / Fold change /veh CCDC152 (11743942_at) / RFU ECM1 (11717891_a_at) / Fold change /veh ECM1 (11717891_a_at) / RFU IL23R (11748794_a_at) / Fold change /veh IL23R (11748794_a_at) / RFU TNFAIP8L3 (11732012_x_at) / Fold change /veh TNFAIP8L3 (11732012_x_at) / RFU MBOAT4 (11741988_at) / Fold change /veh MBOAT4 (11741988_at) / RFU 11764193_at / Fold change /veh 11764193_at / RFU TMEM53 (11763286_at) / Fold change /veh TMEM53 (11763286_at) / RFU MAGEB2 (11727129_at) / Fold change /veh MAGEB2 (11727129_at) / RFU TMEM200A (11744735_a_at) / Fold change /veh TMEM200A (11744735_a_at) / RFU CCDC152 (11751479_a_at) / Fold change /veh CCDC152 (11751479_a_at) / RFU FAM211A (11726209_a_at) / Fold change /veh FAM211A (11726209_a_at) / RFU RGS16 (11746705_a_at) / Fold change /veh RGS16 (11746705_a_at) / RFU VCAN (11755009_s_at) / Fold change /veh VCAN (11755009_s_at) / RFU RHOB (11743442_s_at) / Fold change /veh RHOB (11743442_s_at) / RFU RGS16 (11720943_a_at) / Fold change /veh RGS16 (11720943_a_at) / RFU RGS16 (11720944_at) / Fold change /veh RGS16 (11720944_at) / RFU, VPS4B / Fold change vs veh, VPS4B / RFU, CREB1 / Fold change vs veh, CREB1 / RFU, DNAJC13 / Fold change vs veh, DNAJC13 / RFU, GNAQ / Fold change vs veh, GNAQ / RFU, CDK5R1 / Fold change vs veh, CDK5R1 / RFU, ZRANB3 / Fold change vs veh, ZRANB3 / RFU, CUL4A / Fold change vs veh, CUL4A / RFU, CCNY / Fold change vs veh, CCNY / RFU, UFL1 / Fold change vs veh, UFL1 / RFU, COG3 / Fold change vs veh, COG3 / RFU, DIAPH2 / Fold change vs veh, DIAPH2 / RFU, SKA2 / Fold change vs veh, SKA2 / RFU, AFF3 / Fold change vs veh, AFF3 / RFU, LMF1 / Fold change vs veh, LMF1 / RFU, IPO11 / Fold change vs veh, IPO11 / RFU, DFFB / Fold change vs veh, DFFB / RFU, FOXP1 / Fold change vs veh, FOXP1 / RFU, CARD8 / Fold change vs veh, CARD8 / RFU, STRN3 / Fold change vs veh, STRN3 / RFU, ADK / Fold change vs veh, ADK / RFU, RASSF2 / Fold change vs veh, RASSF2 / RFU, WIPF1 / Fold change vs veh, WIPF1 / RFU, LARP1B / Fold change vs veh, LARP1B / RFU, RASA1 / Fold change vs veh, RASA1 / RFU, RB1 / Fold change vs veh, RB1 / RFU, PPFIA1 / Fold change vs veh, PPFIA1 / RFU, MAT2A / Fold change vs veh, MAT2A / RFU, CCT5 / Fold change vs veh, CCT5 / RFU, WDR92 / Fold change vs veh, WDR92 / RFU, CUX1 / Fold change vs veh, CUX1 / RFU, TTC7A / Fold change vs veh, TTC7A / RFU, TMEM135 / Fold change vs veh, TMEM135 / RFU, DEPTOR / Fold change vs veh, DEPTOR / RFU, CPM / Fold change vs veh, CPM / RFU, DNAJB6 / Fold change vs veh, DNAJB6 / RFU, CACNA2D3 / Fold change vs veh, CACNA2D3 / RFU, DTX4 / Fold change vs veh, DTX4 / RFU, TFCP2 / Fold change vs veh, TFCP2 / RFU, GMCL1 /// GMCL1P1 / Fold change vs veh, GMCL1 /// GMCL1P1 / RFU, AEBP2 / Fold change vs veh, AEBP2 / RFU, SNHG1 /// SNORD22 /// SNORD25 /// SNORD26 /// SNORD27 /// SNORD28 /// SNORD29 /// SNORD31 / Fold change vs veh, SNHG1 /// SNORD22 /// SNORD25 /// SNORD26 /// SNORD27 /// SNORD28 /// SNORD29 /// SNORD31 / Fold change (Aza/veh), C12orf56 (ProbeSet 11735607_a_at) / Fold change (ACY-1035/veh), C12orf56 (ProbeSet 11735607_a_at) / Fold change (Aza/veh), FGFR1OP (ProbeSet 11751329_s_at) / Fold change (ACY-1035/veh), FGFR1OP (ProbeSet 11751329_s_at) / Fold change (Aza/veh), VPS36 (ProbeSet 11739960_a_at) / Fold change (ACY-1035/veh), VPS36 (ProbeSet 11739960_a_at) / RFU SYPL1 (11715823_x_at) / Fold change /veh SYPL1 (11715823_x_at) / RFU IGFBP7 (11715501_s_at) / Fold change /veh IGFBP7 (11715501_s_at) / RFU REEP3 (11722064_at) / Fold change /veh REEP3 (11722064_at) / RFU IGLL1 (11728026_x_at) / Fold change /veh IGLL1 (11728026_x_at): dose or concentration left out as unconfirmed
Conditions: gene C12orf56; Azacitidine vs DMSO; LIST F

Nc1ncn([C@@H]2O[C@H](CO)[C@@H](O)[C@H]2O)c(=O)n1 [azacitidine]
Fold change (Aza/veh), C12orf56 (ProbeSet 11735607_a_at): 1.01
